Patent publication US8586505B2 (SDS Biotech K. K., priority 2009, dated 2013)

Columns and labels:
Format in all cases: in vivo
[1] = system: Pseudoperonospora cubensis; test: Test of examining control effect on Pseudoperonospora cubensis (potted cucumber plants); conditions: 96 h, 10% wettable powder adjusted to 125 ppm, 15 ml/pot sprayed on potted cucumber plants one day before spray inoculation, assessed after 1 day wet chamber and 3 days greenhouse, read-out: Determination of control effect (preventive value) on Pseudoperonospora cubensis
Method: (§1) Calculation of Preventive Value: Preventive value={(untreated lesion area rate−treated lesion area rate)/untreated lesion area rate}×100
(§2) Using the thus calculated preventive value, the control effect of each compound was determined in accordance with the following standards.
(§3) High control effect: 100%≧preventive value≧60%
(§4) Low control effect: 60%>preventive value≧0%
Using a spray gun, an agent solution prepared by adjusting a 10% wettable powder of each sample compound to 125 ppm (hereinafter referred to as a “sample agent solution”) was sprayed to potted cucumber plants (variety: Sagamihanjiro, 2.5 leave stage) in a concentration of 15 ml/pot. One day after the spraying, a conidial suspension of Pseudoperonospora cubensis (conidial concentration: 1.0×10^4 cells/ml) was applied to the plants by spray inoculation. After completion of the inoculation, the plants were left at 21° C. under wet chamber conditions for 1 day, and were then left in a greenhouse for 3 days, so that they were fully infected with the aforementioned disease. Thereafter, the disease level on each leaf was compared with that on an untreated leaf, and the control effect of each compound was determined in the same manner as in Example 3(1).

Phytophthora infestans = test: whole plant or invertebrate; conditions: in Solanum lycopersicum, 96 h, read-out: Determination of control effect (preventive value)
Sphaerotheca fuliginea = test: Test of examining control effect on Sphaerotheca fuliginea (potted cucumber plants); conditions: Podosphaera fuliginea, 336 h; 10% wettable powder adjusted to 125 ppm, 15 ml/pot sprayed on potted cucumber plants one day before spray inoculation; assessed after 14 days in greenhouse; read-out: Determination of control effect (preventive value) on Sphaerotheca fuliginea
Method: as §1, §2, §3, §4
Using a spray gun, an agent solution prepared by adjusting a 10% wettable powder of each sample compound to 125 ppm (hereinafter referred to as a “sample agent solution”) was sprayed to potted cucumber plants (variety: Sagamihanjiro, 2nd leave stage) in a concentration of 15 ml/pot. One day after the spraying, a conidial suspension of Sphaerotheca fuliginea (conidial concentration: 1.0×10^5 cells/ml) was applied to the plants by spray inoculation. The plants were left in a greenhouse for 14 days, so that they were fully infected with the aforementioned disease. Thereafter, the disease level on each leaf was compared with that on an untreated leaf, and the control effect of each compound was determined in the same manner as in Example 3(1).

SMILES | pest or weed control at 125 µg/mL [1] | pest or weed control at 125 ppm (Phytophthora infestans) | pest or weed control at 125 µg/mL (Sphaerotheca fuliginea)
COCc1ccc(Cl)cc1C#CCCNc1ncnc2ccccc12 [compound 143] | 60 to 100% | 60 to 100% | 60 to 100%
COCc1ccc(C)cc1C#CCCNc1ncnc2ccccc12 [compound 144] | 60 to 100% | 60 to 100% | 60 to 100%
COCc1cc(C)ccc1C#CCCNc1ncnc2ccccc12 [compound 145] | 60 to 100% | 60 to 100% | 60 to 100%
N#CCc1ccccc1C#CCCNc1ncnc2ccccc12 [compound 147] | 60 to 100% | 60 to 100% | 60 to 100%
COCOCc1ccccc1C#CCCNc1ncnc2ccccc12 [compound 148] | 60 to 100% | 60 to 100% | 60 to 100%
COC(OC)c1ccccc1C#CCCNc1ncnc2ccccc12 [compound 149] | 0 to 60% | 0 to 60% | 0 to 60%
CCOC(OCC)c1ccccc1C#CCCNc1ncnc2ccccc12 [compound 150] | 0 to 60% | 0 to 60% | 0 to 60%
CCOC(OCC)c1ccc(C#CCCNc2ncnc3ccccc23)cc1 [compound 151] | 60 to 100% | 60 to 100% | 60 to 100%
CSCc1ccccc1C#CCCNc1ncnc2ccccc12 [compound 152] | 60 to 100% | 0 to 60% | 0 to 60%
CCOCc1ccccc1C#CCCNc1ncnc2ccccc12 [compound 153] | 60 to 100% | 60 to 100% | 0 to 60%
CC(C)OCc1ccccc1C#CCCNc1ncnc2ccccc12 [compound 154] | 60 to 100% | 60 to 100% | 60 to 100%
C(#Cc1ccccc1C1OCCO1)CCNc1ncnc2ccccc12 [compound 155] | 60 to 100% | 0 to 60% | 0 to 60%
C(#Cc1ccc2c(c1)CCO2)CCNc1ncnc2ccccc12 [compound 157] | 60 to 100% | 0 to 60% | 60 to 100%
OCCc1ccccc1C#CCCNc1ncnc2ccccc12 [compound 158] | 60 to 100% | 0 to 60% | 60 to 100%
CN(C)c1ccc(C#CCCNc2ncnc3ccccc23)cc1 [compound 159] | 60 to 100% | 0 to 60% | 60 to 100%
CN(C)S(=O)(=O)c1ccccc1C#CCCNc1ncnc2ccccc12 [compound 161] | 60 to 100% | 60 to 100% | 0 to 60%
CS(=O)(=O)Cc1ccccc1C#CCCNc1ncnc2ccccc12 [compound 162] | 60 to 100% | 0 to 60% | 0 to 60%
Fc1ccc(F)c(C#CCCNc2ncnc3ccccc23)c1 [compound 163] | 60 to 100% | 60 to 100% | 60 to 100%
Cc1ccc(F)cc1C#CCCNc1ncnc2ccccc12 [compound 167] | 60 to 100% | 0 to 60% | 60 to 100%
Fc1ccc(C(F)(F)F)c(C#CCCNc2ncnc3ccccc23)c1 [compound 168] | 60 to 100% | 60 to 100% | 60 to 100%
Fc1ccc(C#CCCNc2ncnc3ccccc23)c(C(F)(F)F)c1 [compound 169] | 60 to 100% | 60 to 100% | 60 to 100%
N#Cc1cc(F)ccc1C#CCCNc1ncnc2ccccc12 [compound 170] | 60 to 100% | 60 to 100% | 60 to 100%
FC(F)(F)c1ccc(C#CCCNc2ncnc3ccccc23)cc1Cl [compound 177] | 60 to 100% | 60 to 100% | 60 to 100%
FC(F)(F)c1cc(Cl)ccc1C#CCCNc1ncnc2ccccc12 [compound 178] | 60 to 100% | 60 to 100% | 60 to 100%

SMILES | pest or weed control at 125 µg/mL [1] | pest or weed control at 125 ppm (Phytophthora infestans) | pest or weed control at 125 µg/mL (Sphaerotheca fuliginea)
Cc1ccc(C#CCCNc2ncnc3ccccc23)c(C)c1 [compound 180] | 60 to 100% | 60 to 100% | 60 to 100%
Cc1cc(C)c(C#CCCNc2ncnc3ccccc23)c(C)c1 [compound 181] | 60 to 100% | 0 to 60% | 60 to 100%
FC(F)(F)c1ccc(C#CCCNc2ncnc3ccccc23)c(Cl)c1 [compound 182] | 60 to 100% | 0 to 60% | 60 to 100%
COc1ccc2cc(C#CCCNc3ncnc4ccccc34)ccc2c1 [compound 184] | 60 to 100% | 60 to 100% | 60 to 100%
COCc1ccc2ccccc2c1C#CCCNc1ncnc2ccccc12 [compound 185] | 60 to 100% | 0 to 60% | 0 to 60%
Cc1ccc(Oc2ccc(C#CCCNc3ncnc4ccccc34)cc2)cc1 [compound 186] | 0 to 60% | 0 to 60% | 60 to 100%
N#Cc1cc(C(F)(F)F)ccc1C#CCCNc1ncnc2ccccc12 [compound 187] | 60 to 100% | 0 to 60% | 0 to 60%
C(#Cc1ccc2ccccc2n1)CCNc1ncnc2ccccc12 [compound 188] | 60 to 100% | 0 to 60% | 0 to 60%
C(#Cc1ccnc2ccccc12)CCNc1ncnc2ccccc12 [compound 189] | 60 to 100% | 0 to 60% | 60 to 100%
C(#Cc1ccc2ncccc2c1)CCNc1ncnc2ccccc12 [compound 190] | 60 to 100% | 0 to 60% | 0 to 60%
C(#Cc1cccc2ncccc12)CCNc1ncnc2ccccc12 [compound 191] | 60 to 100% | 0 to 60% | 0 to 60%
C(#Cc1cncc2ccccc12)CCNc1ncnc2ccccc12 [compound 192] | 60 to 100% | 0 to 60% | 0 to 60%
Fc1ccc(C#CCCNc2ncnc3ccccc23)cn1 [compound 194] | 60 to 100% | 0 to 60% | 60 to 100%
Clc1cc(C#CCCNc2ncnc3ccccc23)ccn1 [compound 196] | 60 to 100% | 0 to 60% | 60 to 100%
FC(F)(F)c1ccc(C#CCCNc2ncnc3ccccc23)nc1 [compound 197] | 60 to 100% | 0 to 60% | 60 to 100%
COc1cc(C#CCCNc2ncnc3ccccc23)ccn1 [compound 199] | 60 to 100% | 60 to 100% | 60 to 100%
Cc1cccc(C#CCCNc2ncnc3ccccc23)n1 [compound 200] | 60 to 100% | 60 to 100% | 60 to 100%
Cn1cc(C#CCCNc2ncnc3ccccc23)ccc1=O [compound 203] | 60 to 100% | 0 to 60% | 0 to 60%
C(#Cc1cccs1)CCNc1ncnc2ccccc12 [compound 204] | 60 to 100% | 60 to 100% | 60 to 100%
C(#Cc1ccsc1)CCNc1ncnc2ccccc12 [compound 205] | 60 to 100% | 60 to 100% | 60 to 100%
Cc1ccc(C#CCCNc2ncnc3ccccc23)s1 [compound 206] | 60 to 100% | 60 to 100% | 0 to 60%
COCc1ccsc1C#CCCNc1ncnc2ccccc12 [compound 207] | 60 to 100% | 60 to 100% | 60 to 100%
Cc1ccsc1C#CCCNc1ncnc2ccccc12 [compound 208] | 60 to 100% | 60 to 100% | 60 to 100%
